Measured values taken from patent US9833497B2, “Human originated EGF domain proteins and use of the same” (CHENGDU SOURCEBIO LIMITED-LIABILITY COMPANY, priority 2013, dated 2017).

How the values were obtained:
Assay type in all cases: cell-based
E. coli DH5α = experiment: Antibacterial activity: MIC and growth curve against E. coli DH5α in 96-well plate; details: minimal inhibitory concentration against E. coli DH5α; 96-well plate, 5×10^5 CFU/mL, 37° C., judged after 8 h
Method in brief: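 Log-phase bacteria (OD600 ~0.5) resuspended in LB at 5×10^5 CFU/mL, exposed to recombinant protein at 50, 25, 12.5 μg/mL final in triplicate, 37 °C shaking at 175 rpm. OD600 read every 30 min; MIC is lowest concentration showing no growth.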

E. coli BL21 = experiment: MIC against Gram-negative bacteria: E. coli BL21; details: 5×10^5 CFU/mL
Method in brief: (§1)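 Bacteria grown in LB at 37° C to McFarland 0.5, resuspended and seeded at 5×10^5 CFU/mL in 96-well plates. Purified human EGF-domain proteins two-fold serially diluted, triplicate wells; cultured at 37° C, shaking 175 rpm. MIC = lowest protein concentration with no growth.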

Pseudomonas aeruginosa = experiment: MIC against Gram-negative bacteria: Pseudomonas aeruginosa; details: 5×10^5 CFU/mL
Method in brief: as §1

Klebsiella pneumonia = experiment: MIC against Gram-negative bacteria: Klebsiella pneumonia; details: 5×10^5 CFU/mL
Method in brief: as §1

Enterobacter cloacae = experiment: MIC against Gram-negative bacteria: Enterobacter cloacae; details: 5×10^5 CFU/mL
Method in brief: as §1

Aeromonas hydrophila = experiment: MIC against Gram-negative bacteria: Aeromonas hydrophila; details: 5×10^5 CFU/mL
Method in brief: as §1

Citrobacter diversus = experiment: MIC against Gram-negative bacteria: Citrobacter diversus; details: 5×10^5 CFU/mL
Method in brief: as §1

Moraxella catarrhalis = experiment: MIC against Gram-negative bacteria: Moraxella catarrhalis; details: 5×10^5 CFU/mL
Method in brief: as §1

Proteus mirabilis = experiment: MIC against Gram-negative bacteria: Proteus mirabilis; details: 5×10^5 CFU/mL
Method in brief: as §1

Proteus vulgaris = experiment: MIC against Gram-negative bacteria: Proteus vulgaris; details: 5×10^5 CFU/mL
Method in brief: as §1

Serratia marcescens = experiment: MIC against Gram-negative bacteria: Serratia marcescens; details: 5×10^5 CFU/mL
Method in brief: as §1

[1] = E. coli BL21, 96-well plate, 37° C., 10 h
[2] = Pseudomonas aeruginosa, 96-well plate, 37° C., 10 h
[3] = Klebsiella pneumonia, 96-well plate, 37° C., 10 h
[4] = Enterobacter cloacae, 96-well plate, 37° C., 10 h
[5] = Aeromonas hydrophila, 96-well plate, 37° C., 10 h
[6] = Citrobacter diversus, 96-well plate, 37° C., 10 h
[7] = Moraxella catarrhalis, 96-well plate, 37° C., 10 h
[8] = Proteus mirabilis, 96-well plate, 37° C., 10 h
[9] = Proteus vulgaris, 96-well plate, 37° C., 10 h
[10] = Serratia marcescens, 96-well plate, 37° C., 10 h
[11] = 10 h cultivation at 37° C., two-fold serial dilution

PRT23 (KKNPCNAEFQNFCIHGECKYIEHLEAVTCKCQQEYFGERCG; listed as Homo sapiens)
MIC (E. coli DH5α): 12.5 µg/mL
MIC (μg/mL) E. coli BL21 (E. coli BL21; [1]): 25 µg/mL
MIC (μg/mL) P. aeruginosa (Pseudomonas aeruginosa; [2]): 12.5 µg/mL
MIC (μg/mL) K. pneumonia (Klebsiella pneumonia; [3]): 12.5 µg/mL
MIC (μg/mL) E. cloacae (Enterobacter cloacae; [4]): 25 µg/mL
MIC (μg/mL) A. hydrophila (Aeromonas hydrophila; [5]): 12.5 µg/mL
MIC (μg/mL) C. diversus (Citrobacter diversus; [6]): 50 µg/mL
MIC (μg/mL) M. catarrhalis (Moraxella catarrhalis; [7]): 25 µg/mL
MIC (μg/mL) P. mirabilis (Proteus mirabilis; [8]): 50 µg/mL
MIC (μg/mL) P. vulgaris (Proteus vulgaris; [9]): 25 µg/mL
MIC (μg/mL) S. marcescens (Serratia marcescens; [10]): 50 µg/mL

PRT1187 (NTNDCNPLPCYNGGICVDGVNWFRCECAPGFAGPDCR; listed as Homo sapiens)
MIC (E. coli DH5α): 50 µg/mL
MIC E. coli BL21 (E. coli BL21; [11]): 25 µg/mL
MIC P. aeruginosa (Pseudomonas aeruginosa; [11]): 12.5 µg/mL
MIC K. pneumonia (Klebsiella pneumonia; [11]): 25 µg/mL
MIC E. cloacae (Enterobacter cloacae; [11]): 25 µg/mL
MIC A. hydrophila (Aeromonas hydrophila; [11]): 12.5 µg/mL
MIC C. diversus (Citrobacter diversus; [11]): 12.5 µg/mL
MIC M. catarrhalis (Moraxella catarrhalis; [11]): 12.5 µg/mL
MIC P. mirabilis (Proteus mirabilis; [11]): 25 µg/mL
MIC P. vulgaris (Proteus vulgaris; [11]): 12.5 µg/mL
MIC S. marcescens (Serratia marcescens; [11]): 12.5 µg/mL

PRT475 (VQNTCKDNPCGRGQCLITQSPPYYRCVCKHPYTGPSCS; listed as Homo sapiens)
MIC (E. coli DH5α): 50 µg/mL
MIC against E. coli BL21 (E. coli BL21; 96-well plate, 37° C., 10 h): 12.5 µg/mL
MIC against P. aeruginosa (Pseudomonas aeruginosa; 96-well plate, 37° C., 10 h): 50 µg/mL
MIC against K. pneumonia (Klebsiella pneumonia; 96-well plate, 37° C., 10 h): 25 µg/mL
MIC against E. cloacae (Enterobacter cloacae; 96-well plate, 37° C., 10 h): 25 µg/mL
MIC against A. hydrophila (Aeromonas hydrophila; 96-well plate, 37° C., 10 h): 25 µg/mL
MIC against C. diversus (Citrobacter diversus; 96-well plate, 37° C., 10 h): 25 µg/mL
MIC against M. catarrhalis (Moraxella catarrhalis; 96-well plate, 37° C., 10 h): 12.5 µg/mL
MIC against P. mirabilis (Proteus mirabilis; 96-well plate, 37° C., 10 h): 50 µg/mL
MIC against P. vulgaris (Proteus vulgaris; 96-well plate, 37° C., 10 h): 12.5 µg/mL
MIC against S. marcescens (Serratia marcescens; 96-well plate, 37° C., 10 h): 50 µg/mL

PRT823 (FGEACAQRCSCPPGAACHHVTGACRCPPGFTGSGCE; listed as Homo sapiens)
MIC (E. coli DH5α): 25 µg/mL
MIC (μg/mL) E. coli BL21 (E. coli BL21; E. coli BL21, 10 h cultivation at 37° C.): 12.5 µg/mL
MIC (μg/mL) P. aeruginosa (Pseudomonas aeruginosa; P. aeruginosa, 10 h cultivation at 37° C.): 25 µg/mL
MIC (μg/mL) K. pneumonia (Klebsiella pneumonia; K. pneumonia, 10 h cultivation at 37° C.): 12.5 µg/mL
MIC (μg/mL) E. cloacae (Enterobacter cloacae; E. cloacae, 10 h cultivation at 37° C.): 25 µg/mL
MIC (μg/mL) A. hydrophila (Aeromonas hydrophila; A. hydrophila, 10 h cultivation at 37° C.): 12.5 µg/mL
MIC (μg/mL) C. diversus (Citrobacter diversus; C. diversus, 10 h cultivation at 37° C.): 25 µg/mL
MIC (μg/mL) M. catarrhalis (Moraxella catarrhalis; M. catarrhalis, 10 h cultivation at 37° C.): 50 µg/mL
MIC (μg/mL) P. mirabilis (Proteus mirabilis; P. mirabilis, 10 h cultivation at 37° C.): 25 µg/mL
MIC (μg/mL) P. vulgaris (Proteus vulgaris; P. vulgaris, 10 h cultivation at 37° C.): 12.5 µg/mL
MIC (μg/mL) S. marcescens (Serratia marcescens; S. marcescens, 10 h cultivation at 37° C.): 50 µg/mL

PRT1213 (HSDYCSQNTCLNGGKCSWTHGAGYVCKCPPQFSGKHCE; listed as Homo sapiens)
MIC (E. coli DH5α): 25 µg/mL
MIC against E. coli BL21 (E. coli BL21; [1]): 25 µg/mL
MIC against P. aeruginosa (Pseudomonas aeruginosa; [2]): 50 µg/mL
MIC against K. pneumonia (Klebsiella pneumonia; [3]): 25 µg/mL
MIC against E. cloacae (Enterobacter cloacae; [4]): 100 µg/mL
MIC against A. hydrophila (Aeromonas hydrophila; [5]): 50 µg/mL
MIC against C. diversus (Citrobacter diversus; [6]): 25 µg/mL
MIC against M. catarrhalis (Moraxella catarrhalis; [7]): 12.5 µg/mL
MIC against P. mirabilis (Proteus mirabilis; [8]): 25 µg/mL
MIC against P. vulgaris (Proteus vulgaris; [9]): 50 µg/mL
MIC against S. marcescens (Serratia marcescens; [10]): 25 µg/mL

PRT1281 (DLCLSSPCQNQGTCHNDPLEVYRCACPSGYKGRDCE; listed as Homo sapiens)
MIC (E. coli DH5α): 50 µg/mL
MIC against E. coli BL21 (E. coli BL21; [1]): 12.5 µg/mL
MIC against P. aeruginosa (Pseudomonas aeruginosa; [2]): 25 µg/mL
MIC against K. pneumonia (Klebsiella pneumonia; [3]): 50 µg/mL
MIC against E. cloacae (Enterobacter cloacae; [4]): 25 µg/mL
MIC against A. hydrophila (Aeromonas hydrophila; [5]): 12.5 µg/mL
MIC against C. diversus (Citrobacter diversus; [6]): 50 µg/mL
MIC against M. catarrhalis (Moraxella catarrhalis; [7]): 12.5 µg/mL
MIC against P. mirabilis (Proteus mirabilis; [8]): 50 µg/mL
MIC against P. vulgaris (Proteus vulgaris; [9]): 12.5 µg/mL
MIC against S. marcescens (Serratia marcescens; [10]): 50 µg/mL

PRT1248 (SACYCSATSRCDPQTGACLCHAGWWGRSCN; listed as Homo sapiens)
MIC (E. coli DH5α): 25 µg/mL
MIC against E. coli BL21 (E. coli BL21; [1]): 25 µg/mL
MIC against P. aeruginosa (Pseudomonas aeruginosa; [2]): 25 µg/mL
MIC against K. pneumonia (Klebsiella pneumonia; [3]): 25 µg/mL
MIC against E. cloacae (Enterobacter cloacae; [4]): 12.5 µg/mL
MIC against A. hydrophila (Aeromonas hydrophila; [5]): 12.5 µg/mL
MIC against C. diversus (Citrobacter diversus; [6]): 25 µg/mL
MIC against M. catarrhalis (Moraxella catarrhalis; [7]): 12.5 µg/mL
MIC against P. mirabilis (Proteus mirabilis; [8]): 25 µg/mL
MIC against P. vulgaris (Proteus vulgaris; [9]): 12.5 µg/mL
MIC against S. marcescens (Serratia marcescens; [10]): 25 µg/mL
